Results on 12 compounds are retold here after patent US7807673B2, “2-pyrimidinyl pyrazolopyridine ErbB kinase inhibitors” (GlaxoSmithKline LLC, priority 2005, dated 2010).

The target in one test is T1, ErbB2 or EGFR.
T1 construct: enzymes purified from a baculovirus expression system
Nature of the test: ErbB enzyme substrate phosphorylation assay (HTRF), Method B (enzyme pre-incubated with compound 1 hour). It counts as biochemical. Particulars: Table 1, enzyme Method B: enzyme mix incubated with compound 1 hour at 20° C., reaction started with substrate mix; class over ErbB2 or EGFR. On the procedure:
Compounds of the present invention were tested for EGFR, ErbB-2, and ErbB-4 protein tyrosine kinase inhibitory activity in substrate phosphorylation assays using enzymes purified from a baculovirus expression system. Reagent production was conducted essentially as described in Brignola, P. S., et al, (2002) J. Biol. Chem. 277(2): 1576-1585.
The method measures the ability of the isolated enzyme to catalyse the transfer of the gamma-phosphate from ATP onto the tyrosine residue of a biotinylated synthetic peptide referenced “Peptide C” in Brignola, P. S., et al, (2002) J. Biol. Chem. 277(2):1576-1585. The extent of tyrosine phosphorylation was measured using an anti-phosphotyrosine antibody, and quantified by homogenous time-resolved fluorescence (HTRF).
Reactions were performed in black 384-well polystyrene flat-bottom plates in a final volume of 20 μl. Assays were performed by adding 10 μl of each of the following solutions, substrate Mix and enzyme mix: The Substrate mix contained 100 mM 3-[N-morpholino]propanesulfonic acid (MOPS) (pH 7.5), 2 mM MnCl2, 20 μM ATP, 0.01% Tween-20, 0.1 mg/mL (BSA), 0.8 uM peptide substrate, and 1 mM dithiothreitol. The enzyme mix contained 100 mM MOPS (pH7.5); 0.01% Tween-20; 0.1 mg/mL BSA, and either 0.8 nM EGFR, 10 nM ErbB2, or 1 nM ErbB4
During the course of these studies, two separate methods have been used to measure the potency of compounds. In Method A, the substrate mix was added to the compound plates first, then the reaction was started by adding the enzyme mix. In Method B, the enzyme mix was added to the compound plates and the plates were incubated at 20° C. for 1 hour. The reactions were then started by adding the substrate mix.
After initiating the reaction with either method describe above, the reactions were allowed to proceed for 90 minutes at 20° C. The reactions were then terminated by the addition of 20 μl 100 mM EDTA to each well. 40 μl/well of HTRF detection mix were added to the assay plates. The final concentrations of the detection reagents were: 100 mM HEPES (pH7.5), 0.1 mg/mL BSA, 15 nM streptavidin-labeled allophycocyanin (PerkinElmer), and 1 nM europium-labeled anti-phosphotyrosine antibody (PerkinElmer). Assay plates were left unsealed and were counted in a Wallac Multilabel Counter 1420 (PerkinElmer).
Compounds under analysis were dissolved in Me2SO to 1.0 mM and serially diluted 1 to 3 with Me2SO through twelve dilutions. 1 μl of each concentration was transferred to the corresponding well of an assay plate. This creates a final compound concentration range from 0.00027 to 47.6 μM.
The data for dose responses were plotted as % Inhibition calculated with the data reduction formula 100*(1−(U1−C2)/(C1−C2)) versus concentration of compound where U is the unknown value, C1 is the average control value obtained for 4.76% DMSO, and C2 is the average control value obtained for 0.035 M EDTA. Data were fitted with a curve described by: y=((Vmax*x)/(K+x))+Y2 where Vmax is the upper asymptote, Y2 is the Y intercept, and K is the IC50. The results for each compound were recorded as pIC50s, calculated as follows: pIC50=−Log 10(K)

The test system of a further test is Colo205 tumor cell lines. Nature of the test: Celltiter Glo growth inhibition assay (cellular Method B). Particulars: Homo sapiens, COLO 205, 72 h, Table 3, Method B Celltiter Glo, 3 days. It counts as cell-based. On the procedure:
(§1) Human breast tumor cells (BT474) were cultured in RPMI, (Invitrogen, 22400) containing 10% fetal bovine serum (FBS). Human head and neck tumor cells (HN5) were cultured in low glucose DMEM (Invitrogen, 12320) containing 10% FBS. Human colon tumor cells (Colo205) were cultured in DMEM (Invitrogen, 10564) containing 10% FBS. All cell lines were maintained at 37° C. in a humidified 5% CO2, 95% air incubator. Cells were harvested using trypsin/EDTA, counted using a haemocytometer, and plated in 30 microliters of the appropriate media described above, at the following densities, in a half area, black-walled, 96-well tissue culture plate (Corning 3882): BT474 3,000 cells/well, HN5 500 cells/well and Colo205 cells, 3,000 cells/well. The next day, compounds were diluted in DMEM containing 100 mg/ml gentamicin, from 10 mM stock solutions in DMSO. 30 microliters/well of these dilutions were added to the 30 microliters/well of media currently on the cell plates. Medium containing 0.6% DMSO was added to control wells. The final concentration of DMSO in all wells was 0.3%. Cells were incubated at 37° C., 5% CO2 for 3 days. Cell biomass was estimated using Celltiter Glo (Promega G7571). Briefly, plates were removed from the incubator and allowed to equilibrate to rt for 30 minutes. 60 microliters of Celltiter Glo reagent were added to each well of the treated cells and plates were shaken on an orbital plate shaker for 2 min. Plates were incubated without shaking for 30 more min and read in a luminometer with an integration time of 0.5 seconds per well. Percent inhibition of cell growth was calculated relative to vehicle treated control wells. Concentration of compound that inhibits 50% of vehicle control cell growth (IC50) was interpolated using nonlinear regression (Levenberg-Marquardt) and the equation, y=Vmax*(1−(x/(K+x)))+Y2, where “K” was equal to the IC50.
For orientation: In ATP-based viability assays light output follows the ATP content of the culture.

Test [1] concerns BT474 and HN5 tumor cell lines. Described as above. Particulars: Homo sapiens, BT-474, 72 h; Table 2, Method B Celltiter Glo, 3 days; class over BT474 and HN5. It counts as cell-based. Here is the method: as §1

Some results are limits rather than exact numbers.

Broadly, the IC50 is the concentration that inhibits the measured activity by half. Lower therefore signals inhibition by little substance. `O=C(Cc1cccnc1)Nc1cccc(-c2nn3ccccc3c2-c2ccnc(Nc3cccc(-c4cnco4)c3)n2)c1` [Example 21, N-{3-[3-(2-{[3-(1,3-Oxazol-5-yl)phenyl]amino}-4-pyrimidinyl)pyrazolo[1,5-a]pyridin-2-yl]phenyl}-2-(3-pyridinyl)acetamide]: the “Activity (Method)” value on ErbB2 or EGFR was “+++ (B) (at least one pIC50 measurement of greater than 7 against either ErbB2 or EGFR)”. For the same compound, the IC50 in the test with Colo205 tumor cell lines is above 1000 nM; in test [1], 100 to 1000 nM.

`Cc1ccc(OCCN(C)C)cc1Nc1nccc(-c2c(-c3ccc(F)c(NC(=O)Cc4cccs4)c3)nn3ccccc23)n1` [Example 62, N-[5-(3-{2-[(5-{[2-(Dimethylamino)ethyl]oxy}-2-methylphenyl)amino]-4-pyrimidinyl}pyrazolo[1,5-a]pyridin-2-yl)-2-fluorophenyl]-2-(2-thienyl)acetamide]: the “Activity (Method)” value at ErbB2 or EGFR is given as “+ (B) (no pIC50 measurement greater than 6 against either ErbB2 or EGFR)”. Moreover, the IC50 with Colo205 tumor cell lines was 100 to 1000 nM; in test [1] it was above 1000 nM.

Consider `Cc1ccc(-c2nn3ccccc3c2-c2ccnc(Nc3ccc4c(c3)CN(C)CC4)n2)cc1NC(=O)Cc1cccs1` [Example 59, N-[2-Methyl-5-(3-{2-[(2-methyl-1,2,3,4-tetrahydro-7-isoquinolinyl)amino]-4-pyrimidinyl}pyrazolo[1,5-a]pyridin-2-yl)phenyl]-2-(2-thienyl)acetamide], for which the “Activity (Method)” value at ErbB2 or EGFR is “++ (B) (at least one pIC50 measurement greater than 6 against either ErbB2 or EGFR but no measurement greater than pIC50 of 7)”. The IC50 is above 1000 nM in the test with Colo205 tumor cell lines and 100 to 1000 nM in test [1].

Take `NCc1cccc(Nc2nccc(-c3c(-c4cccc(NC(=O)Cc5cccs5)c4)nn4ccccc34)n2)c1` [Example 42, N-{3-[3-(2-{[3-(Aminomethyl)phenyl]amino}-4-pyrimidinyl)pyrazolo[1,5-a]pyridin-2-yl]phenyl}-2-(2-thienyl)acetamide]: at ErbB2 or EGFR, the “Activity (Method)” value is “+++ (B) (at least one pIC50 measurement of greater than 7 against either ErbB2 or EGFR)”. Besides, the IC50 in the test with Colo205 tumor cell lines is above 1000 nM; in test [1], 100 to 1000 nM.

Consider `O=C(Cc1cccs1)Nc1cccc(-c2nn3cc(F)ccc3c2-c2ccnc(Nc3cccc(F)c3)n2)c1` [Example 33, N-[3-(6-fluoro-3-{2-[(3-fluorophenyl)amino]-4-pyrimidinyl}pyrazolo[1,5-a]pyridin-2-yl)phenyl]-2-(2-thienyl)acetamide], for which the “Activity (Method)” value on ErbB2 or EGFR was “++ (B) (at least one pIC50 measurement greater than 6 against either ErbB2 or EGFR but no measurement greater than pIC50 of 7)”. Besides, the IC50 (with Colo205 tumor cell lines; in test [1]) was above 1000 nM throughout.

`O=C(Cc1cccs1)Nc1cccc(-c2nn3cccc(F)c3c2-c2ccnc(Nc3cccc(F)c3)n2)c1` [Example 32, N-[3-(4-fluoro-3-{2-[(3-fluorophenyl)amino]-4-pyrimidinyl}pyrazolo[1,5-a]pyridin-2-yl)phenyl]-2-(2-thienyl)acetamide]: at ErbB2 or EGFR, the “Activity (Method)” value is recorded as “+ (B) (no pIC50 measurement greater than 6 against either ErbB2 or EGFR)”. In addition, the IC50 (with Colo205 tumor cell lines; in test [1]) was above 1000 nM throughout.

`O=C(Cc1ccncc1)Nc1cccc(-c2nn3ccccc3c2-c2ccnc(Nc3cccc(-c4cnco4)c3)n2)c1` [Example 22, N-{3-[3-(2-{[3-(1,3-Oxazol-5-yl)phenyl]amino}-4-pyrimidinyl)pyrazolo[1,5-a]pyridin-2-yl]phenyl}-2-(4-pyridinyl)acetamide]: the “Activity (Method)” value at ErbB2 or EGFR is listed as “+++ (B) (at least one pIC50 measurement of greater than 7 against either ErbB2 or EGFR)”. Further, the IC50 (with Colo205 tumor cell lines; in test [1]) was above 1000 nM each time.

`O=C(Cc1cccs1)Nc1cc(-c2nn3ccccc3c2-c2ccnc(Nc3cccc(CN4CCCC4)c3)n2)ccc1F` [Example 61, N-{2-Fluoro-5-[3-(2-{[3-(1-pyrrolidinylmethyl)phenyl]amino}-4-pyrimidinyl)pyrazolo[1,5-a]pyridin-2-yl]phenyl}-2-(2-thienyl)acetamide]: the “Activity (Method)” value at ErbB2 or EGFR was “++ (B) (at least one pIC50 measurement greater than 6 against either ErbB2 or EGFR but no measurement greater than pIC50 of 7)”. Besides, the IC50 (with Colo205 tumor cell lines; in test [1]) was 100 to 1000 nM each time.

As to `Cc1ccc(-c2nn3ccccc3c2-c2ccnc(Nc3cc(OCCN(C)C)ccc3C)n2)cc1NC(=O)Cc1cccs1` [Example 57, N-[5-(3-{2-[(5-{[2-(Dimethylamino)ethyl]oxy}-2-methylphenyl)amino]-4-pyrimidinyl}pyrazolo[1,5-a]pyridin-2-yl)-2-methylphenyl]-2-(2-thienyl)acetamide], the “Activity (Method)” value at ErbB2 or EGFR is “++ (B) (at least one pIC50 measurement greater than 6 against either ErbB2 or EGFR but no measurement greater than pIC50 of 7)”. The IC50 (with Colo205 tumor cell lines; in test [1]) was above 1000 nM each time.

For `CN1CCc2ccc(Nc3nccc(-c4c(-c5cccc(NC(=O)Cc6cccs6)c5)nn5cc(F)ccc45)n3)cc2C1` [Example 35, N-[3-(6-fluoro-3-{2-[(2-methyl-1,2,3,4-tetrahydro-7-isoquinolinyl)amino]-4-pyrimidinyl}pyrazolo[1,5-a]pyridin-2-yl)phenyl]-2-(2-thienyl)acetamide], the “Activity (Method)” value on ErbB2 or EGFR is on record as “++ (B) (at least one pIC50 measurement greater than 6 against either ErbB2 or EGFR but no measurement greater than pIC50 of 7)”. Further, the values for the IC50 (with Colo205 tumor cell lines; in test [1]) were above 1000 nM and 100 to 1000 nM, respectively.

With `Cc1ccc(-c2nn3ccccc3c2-c2ccnc(Nc3cccc(OCCN(C)C)c3)n2)cc1NC(=O)Cc1cccs1` [Example 58, N-[5-(3-{2-[(3-{[2-(Dimethylamino)ethyl]oxy}phenyl)amino]-4-pyrimidinyl}pyrazolo[1,5-a]pyridin-2-yl)-2-methylphenyl]-2-(2-thienyl)acetamide], the “Activity (Method)” value at ErbB2 or EGFR is reported as “++ (B) (at least one pIC50 measurement greater than 6 against either ErbB2 or EGFR but no measurement greater than pIC50 of 7)”. For the same compound, the IC50 (in the test with Colo205 tumor cell lines; in test [1]) was 100 to 1000 nM throughout.

As to `Cc1ccc(-c2nn3ccccc3c2-c2ccnc(Nc3cccc(CN4CCCC4)c3)n2)cc1NC(=O)Cc1cccs1` [Example 56, N-{2-Methyl-5-[3-(2-{[3-(1-pyrrolidinylmethyl)phenyl]amino}-4-pyrimidinyl)pyrazolo[1,5-a]pyridin-2-yl]phenyl}-2-(2-thienyl)acetamide], the “Activity (Method)” value on ErbB2 or EGFR was “++ (B) (at least one pIC50 measurement greater than 6 against either ErbB2 or EGFR but no measurement greater than pIC50 of 7)”. The IC50 (with Colo205 tumor cell lines; in test [1]) was above 1000 nM in each case.
